Assay results: patent US20260069529A1 (BLIS TECHNOLOGIES LIMITED, priority 2022, published 2026)

Key:
[1] = tested on: Micrococcus luteus Q24; experiment: Inhibition by potential prebiotics, spot on lawned CABK12 agar (prebiotic MIC); type: cell-based; conditions: 24 hours 37° C. 5% CO2; for Suitable to be used in Q24 containing product?: aqueous substances 100% to 0.3%, oils 100% only
Method: CABK12 agar plates were split into segments of 6 and […] suspension of Micrococcus luteus […] raw ingredient. Each of the aqueous potential prebiotic substances to be screened were serially diluted in a range of concentrations from 100% to 0.3% using sterile distilled water. Oil based substances were tested at 100% only. 20 μL of each concentration, of each substance were pipetted into a spot onto one segment of the […]12 agar plate and was incubated for 24 hours at 37° C. 5% CO2 in air.

[2] = tested on: Micrococcus luteus Q24; experiment: Effect of prebiotics on the growth of Micrococcus luteus Q24 in M17 broth; type: cell-based; conditions: at 24 hours
Method: A batch of M17 broth (Difco #218561) was made, excluding the lactose solution, by following the manufacturer's instructions. 50 ml of broth was dispensed into sterile 100 ml Schott bottles and 2.5 g (5% w/v) of each potential prebiotic substance was added and mixed well using a magnetic stirrer and stir plate. The mixtures were autoclaved at 110° C. for 10 minutes and allowed to cool.
The suspensions of the prebiotic candidates were prewarmed to 40° C. in order to allow for increased homogenisation of any oil-based components prior to dispensing into the wells. 2 ml of each suspension and an M17 only (control) were pipetted into a sterile 24 well tissue culture plate. […] 100 μl of the suspension was pipetted into each well. Once the suspension was added each well was mixed by aspirating and dispensing the solution 5 times with a 1 ml pipette.
Each sample was enumerated at time points 0, 3, 6, 15, 26 and 34 hours using the following method. […] The number of colonies in each spot were then counted using an electronic colony counter and average to give the final result.
The same method was used as described above except the time points tested were 0, 6, 18 and 24 hours. Olive squalene was selected as one of the preferred prebiotics with 3 others that were analysed in combination with olive squalene and compared to the results of the prebiotic candidates alone (FIG. 17).

[3] = tested on: IL-8 (CXCL8); experiment: EpiDerm safety and efficacy experiment, cytokine quantification IL-8; type: cell-based, human; conditions: daily treatment 4 days; Q24 1×10^8 CFU/ml, vitamin C 50 μg/mL
Method: (§1) The remaining 6 tissues, which were destined for histology or else to receive 5% SDS, were grouped together on the sixth cell culture plate. […] Vitamin C (50 μg/mL) was instead delivered in the culture medium. On day 4 conditioned media samples were collected and stored frozen at −80° C. for cytokine measurement. 33 of the tissues were then exposed for 30 μL of 0.5% or 5% SDS in PBS, or to PBS as negative control. […] The remaining 3 tissues (destined for histology) were simply fed fresh medium and given the appropriate main treatment. […] All tissues were gently rinsed with PBS and the 3 histology tissues were fixed in neutral buffered formalin. The viabilities of the other 33 tissues were assessed using the MTT viability assay.
(§2) For quantification of IL-1β, IFN-α2, IFN-γ, TNF-α, MCP-1 (CCL2), IL-6, IL-8 (CXCL8), IL-10, IL-12p70, IL-17A, IL-18, IL-23, and IL-33, bead-based multiplex LEGENDplex™ analysis (LEGENDplex™ Human Inflammation Panel 1 (13-plex); BioLegend, San Diego, CA, USA) was used according to the manufacturer's instructions. The relevance of each of the measured cytokines for which activity was observed is described in Table 6. Reactions were performed in duplicate. Analysis was performed with the Cytek™ Aurora flow cytometer (Cytek Biosciences Inc., Fremont, CA, USA). Data were analysed via Legendplex V8.0 software (BioLegend) and specified as pg/mL.

[4] = tested on: IL-6; experiment: EpiDerm safety and efficacy experiment, cytokine quantification IL-6; type: cell-based, human
Method: as §1, §2

[5] = tested on: IL-18; experiment: EpiDerm safety and efficacy experiment, cytokine quantification IL-18; type: cell-based, human; conditions: daily treatment 4 days; Q24 1×10^8 CFU/ml, vitamin C 50 μg/mL
Method: as §1, §2

## NC(=O)NC1NC(=O)NC1=O (centres unmarked) [Allantoin]
[1]
  Suitable to be used in Q24 containing product?: Yes

## CC(O)C(=O)O (centres unmarked) [Lactic acid (LA), Lactic acid]
[1]
  Inhibitory concentration against Micrococcus luteus Q24: > 2.5%
  Suitable to be used in Q24 containing product?: No

## NC(=O)c1cccnc1 [Niacinamide]
[1]
  Suitable to be used in Q24 containing product?: Yes

## CC(C)=CCC/C(C)=C/CC/C(C)=C/CC/C=C(\C)CC/C=C(\C)CCC=C(C)C [Olive Squalene]
[1]
  Suitable to be used in Q24 containing product?: Yes

## CC1=C(/C=C/C(C)=C/C=C/C(C)=C/CO)C(C)(C)CCC1 [Retinol (Vitamin A), Retinol]
[1]
  Suitable to be used in Q24 containing product?: Yes

## O=C(O)c1ccccc1O [Salicylic acid (SA), Salicylic acid]
[1]
  Inhibitory concentration against Micrococcus luteus Q24: > 5%
  Suitable to be used in Q24 containing product?: No

## Cc1c(C)c2c(c(C)c1O)CC[C@@](C)(CCC[C@H](C)CCC[C@H](C)CCCC(C)C)O2 [Vitamin E, D Alpha Tocopherol 1000 IU, D Alpha Tocopherol]
[1]
  Suitable to be used in Q24 containing product?: Yes

## OC[C@@H](O)[C@H](O)[C@@H](O)CO [Xylitol]
[2]
  Effect on live Micrococcus luteus Q24 cell count: detrimental
[1]
  Suitable to be used in Q24 containing product?: Yes

## O=C1O[C@H]([C@@H](O)CO)C(O)=C1O [vitamin C, Ascorbic acid]
[3]
  IL-8 levels day 4 vs day 0: unchanged
[4]; daily treatment 4 days, Q24 1×10^8 CFU/ml, vitamin C 50 μg/mL
  IL-6 levels day 4 vs day 0: slight but significant increase on day 4
[4]; pre-treatment 4 days, day 5 vs day 4
  IL-6 released in response to 0.5% SDS: slight increase on day 5
[5]
  IL-18 levels day 4 vs day 0: trend for lower values on day 4
[1]
  Suitable to be used in Q24 containing product?: Yes

## Hyaluronic acid
[1]
  Suitable to be used in Q24 containing product?: Yes
